According to patent publication US8268807B2, “Compositions and method for the treatment of multiple myeloma” (SRI International, priority 2010, dated 2012):
Like-named read-outs stand apart in the source and are kept apart here.

What was measured:
[1] = test system: RPMI-8226 multiple myeloma cells; experiment: Proliferation of RPMI-8226 multiple myeloma cells; assay type: cell-based, human; conditions: read-out: IC50 against RPMI-8226 proliferation
Method: Growth inhibition assay was performed to assess the effect of Compound (1) and antiestrogens on growth of RPMI-8226 (multiple myeloma) cells. Cells were seeded in 96-well plates at 2000 cells/well in 200 μL of medium. After 24 hours, test compounds were added to each well and control wells received vehicle only. On Day 3, viable cells were measured with the MTT assay, using an MTT kit.
The effect of Compound (1) and analogs thereof on proliferation of RPMI-8226 multiple myeloma cells was determined by standard methods.

ER-α = target: T1, ER-α (Homo sapiens, UniProt P03372); experiment: Estrogen receptor binding assay (3H-estradiol displacement), ER-α; conditions: recombinant estrogen receptor, 10 nM 3H-estradiol, 4° C. overnight; read-out: Binding Affinity (IC50) ER-α
T1 sequence (P03372 1-595): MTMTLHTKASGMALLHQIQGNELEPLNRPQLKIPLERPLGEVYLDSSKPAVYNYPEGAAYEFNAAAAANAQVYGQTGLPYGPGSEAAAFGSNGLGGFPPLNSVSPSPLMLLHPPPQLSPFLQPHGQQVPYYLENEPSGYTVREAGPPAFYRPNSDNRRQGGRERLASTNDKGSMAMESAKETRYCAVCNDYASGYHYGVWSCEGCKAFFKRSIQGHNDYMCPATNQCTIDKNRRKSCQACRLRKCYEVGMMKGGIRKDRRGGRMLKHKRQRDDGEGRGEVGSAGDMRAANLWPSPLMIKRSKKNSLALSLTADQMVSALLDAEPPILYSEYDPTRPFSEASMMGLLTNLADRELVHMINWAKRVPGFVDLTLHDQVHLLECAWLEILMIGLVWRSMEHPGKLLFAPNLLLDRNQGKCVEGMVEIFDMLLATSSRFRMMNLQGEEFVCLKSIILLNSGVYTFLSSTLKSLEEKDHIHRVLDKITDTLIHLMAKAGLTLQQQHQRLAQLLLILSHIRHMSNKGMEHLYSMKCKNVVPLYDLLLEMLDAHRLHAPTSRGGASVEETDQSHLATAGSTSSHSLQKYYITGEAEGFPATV

ER-β = ER-β (Homo sapiens, UniProt Q92731); experiment: Estrogen receptor binding assay (3H-estradiol displacement), ER-β; conditions: recombinant estrogen receptor, 10 nM 3H-estradiol, 4° C. overnight; read-out: Binding Affinity (IC50) ER-β
Chain of ER-β (Q92731 whole entry, species assumed): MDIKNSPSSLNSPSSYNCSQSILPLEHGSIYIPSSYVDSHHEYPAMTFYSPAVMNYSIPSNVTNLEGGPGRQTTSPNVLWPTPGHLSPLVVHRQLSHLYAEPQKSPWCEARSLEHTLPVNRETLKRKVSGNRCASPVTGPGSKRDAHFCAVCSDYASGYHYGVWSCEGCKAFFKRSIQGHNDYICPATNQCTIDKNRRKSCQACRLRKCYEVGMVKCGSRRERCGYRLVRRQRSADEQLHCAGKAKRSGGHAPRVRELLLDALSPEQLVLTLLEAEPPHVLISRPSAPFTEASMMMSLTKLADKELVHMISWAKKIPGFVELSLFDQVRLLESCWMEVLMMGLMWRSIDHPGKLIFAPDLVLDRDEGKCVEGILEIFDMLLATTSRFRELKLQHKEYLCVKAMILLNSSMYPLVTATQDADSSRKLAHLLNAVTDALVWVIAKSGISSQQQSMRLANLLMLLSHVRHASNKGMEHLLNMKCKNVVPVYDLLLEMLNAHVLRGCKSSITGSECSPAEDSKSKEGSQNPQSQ

[2] = Activity test of salts of Compound (1) (test not specified)

Row | SMILES | IC50 ([1]; Homo sapiens) | also measured
1 | C[C@@H]1Cc2cc(O)ccc2C2CC[C@]3(C)/C(=C/COCCN4CCCC4)CCC3C21 (stereo partly drawn) | 6.9 µM | 
2 | C[C@@H]1Cc2cc(O)ccc2[C@H]2CC[C@]3(C)/C(=C/COCCN4CCCCC4)CC[C@H]3[C@H]12 | 15 µM | 
3 | C[C@@H]1Cc2cc(O)ccc2[C@H]2CC[C@]3(C)/C(=C/COC[C@@H](C)N(C)C)CC[C@H]3[C@H]12 | 9.2 µM | 
4 | C[C@@H]1Cc2cc(O)ccc2[C@H]2CC[C@]3(C)/C(=C/COCCNC4CC4)CC[C@H]3[C@H]12 | 10.2 µM | 
5 | C[C@@H]1Cc2cc(O)ccc2[C@H]2CC[C@]3(C)/C(=C/COCCN(C)C)CC[C@H]3[C@H]12 [Compound (1)] | 0.8 µM | IC50 (ER-α): 0.00156 ± 0.00042 µM; IC50 (ER-β): 0.0867 ± 0.0133 µM
6 | C[C@]12CC[C@@H]3c4ccc(O)cc4C[C@@H](CCCCCCCCC[S+]([O-])CCCC(F)(F)C(F)(F)F)[C@H]3[C@@H]1CC[C@@H]2O (stereo partly drawn) [ICI-182780, reference compound] | > 20 µM | 
7 | CC/C(=C(\c1ccc(O)cc1)c1ccc(OCCN(C)C)cc1)c1ccccc1 [OH-Tamoxifen, reference compound] |  | IC50 [1]: > 20 µM
8 | O=C(c1ccc(OCCN2CCCCC2)cc1)c1c(-c2ccc(O)cc2)sc2cc(O)ccc12 [Raloxifene, reference compound] | > 20 µM | 
9 | CN(C)CCOCC=C1CCC2C3CCc4cc(O)ccc4C3CCC12C.Cl (stereo not drawn) [chloride salt] |  | Activity of salt (data not provided) [2]: found to have activity
10 | CN(C)CCOCC=C1CCC2C3CCc4cc(O)ccc4C3CCC12C.O=C(O)C=CC(=O)O (stereo not drawn) [fumerate salt] |  | Activity of salt (data not provided) [2]: found to have activity
